Test system: 266295-075-R-J1-PDC spheroid viability
Assay: Anticancer human tumor 266295-075-R-J1-PDC patient-derived head and neck squamous carcinoma cell line growth inhibition [POLQ]
Settings: spheroids with HUVEC and MSC; for IC50: curve of first compound; for viability, T/C: stronger effect = lower value
Procedure, shortened: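 Complex spheroid viability model combining PDC tumour cells with endothelial (HUVEC) and MSC stromal cells. Novobiocin, ART-558 or RP6685 were tested singly and in combination with standard and investigational anticancer drugs. Each was titrated in half-log steps from near clinical Cmax, or from 10 microM where Cmax was unknown.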

[1] = second compound 0.0316 µM, first compound 0.00316 µM
[2] = second compound 0.0316 µM, first compound 0.01 µM
[3] = second compound 0.0316 µM, first compound 0.0316 µM
[4] = second compound 0.0316 µM, first compound 0.1 µM
[5] = second compound 0.1 µM, first compound 0.00316 µM
[6] = second compound 0.1 µM, first compound 0.01 µM
[7] = second compound 0.1 µM, first compound 0.0316 µM
[8] = second compound 0.1 µM, first compound 0.1 µM
[9] = second compound 0.316 µM, first compound 0.00316 µM
[10] = second compound 0.316 µM, first compound 0.01 µM
[11] = second compound 0.316 µM, first compound 0.0316 µM
[12] = second compound 0.316 µM, first compound 0.1 µM
[13] = second compound 1 µM, first compound 0.00316 µM
[14] = second compound 1 µM, first compound 0.01 µM
[15] = second compound 1 µM, first compound 0.0316 µM
[16] = second compound 1 µM, first compound 0.1 µM
[17] = second compound 3.16 µM, first compound 0.00316 µM
[18] = second compound 3.16 µM, first compound 0.01 µM
[19] = second compound 3.16 µM, first compound 0.0316 µM
[20] = second compound 3.16 µM, first compound 0.1 µM
[21] = second compound 10 µM, first compound 0.00316 µM
[22] = second compound 10 µM, first compound 0.01 µM
[23] = second compound 10 µM, first compound 0.0316 µM
[24] = second compound 10 µM, first compound 0.1 µM
[25] = second compound 0.0316 µM, first compound 0.316 µM
[26] = second compound 0.0316 µM, first compound 1 µM
[27] = second compound 0.1 µM, first compound 0.316 µM
[28] = second compound 0.1 µM, first compound 1 µM
[29] = second compound 0.316 µM, first compound 0.316 µM
[30] = second compound 0.316 µM, first compound 1 µM
[31] = second compound 1 µM, first compound 0.316 µM
[32] = second compound 1 µM, first compound 1 µM
[33] = second compound 3.16 µM, first compound 0.316 µM
[34] = second compound 3.16 µM, first compound 1 µM
[35] = second compound 10 µM, first compound 0.316 µM
[36] = second compound 10 µM, first compound 1 µM
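Note: spheroids exposed to compounds for seven days before readout.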

SMILES: Cn1ncnc1[C@H]1c2n[nH]c(=O)c3cc(F)cc(c23)N[C@@H]1c1ccc(F)cc1 + COC1C(OC(N)=O)C(O)C(Oc2ccc3c(O)c(NC(=O)c4ccc(O)c(CC=C(C)C)c4)c(=O)oc3c2C)OC1(C)C
- IC50 (second compound 0.0316 µM): > 100 nM
- IC50 (second compound 0.1 µM): > 100 nM
- IC50 (second compound 0.316 µM): > 100 nM
- IC50 (second compound 1 µM): > 100 nM
- IC50 (second compound 3.16 µM): > 100 nM
- IC50 (second compound 10 µM): > 100 nM
- viability, T/C (second compound 0.0316 µM, first compound 0.000316 µM): 85%
- viability, T/C (second compound 0.0316 µM, first compound 0.001 µM): 97.4%
- viability, T/C [1]: 93%
- viability, T/C [2]: 99.9%
- viability, T/C [3]: 85.9%
- viability, T/C [4]: 97.1%
- viability, T/C (second compound 0.1 µM, first compound 0.000316 µM): 97.9%
- viability, T/C (second compound 0.1 µM, first compound 0.001 µM): 92.7%
- viability, T/C [5]: 70.2%
- viability, T/C [6]: 98.5%
- viability, T/C [7]: 93.4%
- viability, T/C [8]: 79.9%
- viability, T/C (second compound 0.316 µM, first compound 0.000316 µM): 106%
- viability, T/C (second compound 0.316 µM, first compound 0.001 µM): 87.5%
- viability, T/C [9]: 97.6%
- viability, T/C [10]: 103%
- viability, T/C [11]: 86%
- viability, T/C [12]: 83.2%
- viability, T/C (second compound 1 µM, first compound 0.000316 µM): 97.2%
- viability, T/C (second compound 1 µM, first compound 0.001 µM): 86.3%
- viability, T/C [13]: 88.6%
- viability, T/C [14]: 83.7%
- viability, T/C [15]: 93.4%
- viability, T/C [16]: 78.9%
- viability, T/C (second compound 3.16 µM, first compound 0.000316 µM): 86%
- viability, T/C (second compound 3.16 µM, first compound 0.001 µM): 106%
- viability, T/C [17]: 87.2%
- viability, T/C [18]: 84.5%
- viability, T/C [19]: 94.3%
- viability, T/C [20]: 80.5%
- viability, T/C (second compound 10 µM, first compound 0.000316 µM): 101%
- viability, T/C (second compound 10 µM, first compound 0.001 µM): 80.8%
- viability, T/C [21]: 86.9%
- viability, T/C [22]: 104%
- viability, T/C [23]: 88.7%
- viability, T/C [24]: 83.2%

SMILES: CCc1c2c(nc3ccc(O)cc13)-c1cc3c(c(=O)n1C2)COC(=O)[C@]3(O)CC + Nc1ccc(C#CCN(C(=O)Cc2ncc(C(F)(F)F)cc2C(F)(F)F)c2ccc(F)cc2)nn1
- IC50 (second compound 0.0316 µM): > 1000 nM
- IC50 (second compound 0.1 µM): > 1000 nM
- IC50 (second compound 0.316 µM): > 1000 nM
- IC50 (second compound 1 µM): > 1000 nM
- IC50 (second compound 3.16 µM): > 1000 nM
- IC50 (second compound 10 µM): > 1000 nM
- viability, T/C [1]: 86.6%
- viability, T/C [2]: 96%
- viability, T/C [3]: 84.6%
- viability, T/C [4]: 97.7%
- viability, T/C [25]: 106%
- viability, T/C [26]: 81%
- viability, T/C [5]: 103%
- viability, T/C [6]: 80.7%
- viability, T/C [7]: 76.9%
- viability, T/C [8]: 102%
- viability, T/C [27]: 96.2%
- viability, T/C [28]: 75.4%
- viability, T/C [9]: 98.6%
- viability, T/C [10]: 83.1%
- viability, T/C [11]: 80.2%
- viability, T/C [12]: 101%
- viability, T/C [29]: 117%
- viability, T/C [30]: 73.5%
- viability, T/C [13]: 106%
- viability, T/C [14]: 82.7%
- viability, T/C [15]: 81.9%
- viability, T/C [16]: 85.8%
- viability, T/C [31]: 101%
- viability, T/C [32]: 63.4%
- viability, T/C [17]: 108%
- viability, T/C [18]: 96.8%
- viability, T/C [19]: 96.1%
- viability, T/C [20]: 109%
- viability, T/C [33]: 99.5%
- viability, T/C [34]: 65%
- viability, T/C [21]: 100%
- viability, T/C [22]: 97.1%
- viability, T/C [23]: 83.2%
- viability, T/C [24]: 81.5%
- viability, T/C [35]: 117%
- viability, T/C [36]: 70.4%

SMILES: C=CC(=O)N1CCN(c2nc(=O)n(-c3c(C)ccnc3C(C)C)c3nc(-c4c(O)cccc4F)c(F)cc23)C(C)C1 (stereo unspecified) + COC1C(OC(N)=O)C(O)C(Oc2ccc3c(O)c(NC(=O)c4ccc(O)c(CC=C(C)C)c4)c(=O)oc3c2C)OC1(C)C
- IC50 (second compound 0.0316 µM): > 10000 nM
- IC50 (second compound 0.1 µM): > 10000 nM
- IC50 (second compound 0.316 µM): > 10000 nM
- IC50 (second compound 1 µM): > 10000 nM
- IC50 (second compound 3.16 µM): > 10000 nM
- IC50 (second compound 10 µM): > 10000 nM
- viability, T/C [3]: 88.8%
- viability, T/C [4]: 94.7%
- viability, T/C [25]: 133%
- viability, T/C [26]: 118%
- viability, T/C (second compound 0.0316 µM, first compound 3.16 µM): 112%
- viability, T/C (second compound 0.0316 µM, first compound 10 µM): 112%
- viability, T/C [7]: 98.7%
- viability, T/C [8]: 90.6%
- viability, T/C [27]: 94%
- viability, T/C [28]: 104%
- viability, T/C (second compound 0.1 µM, first compound 3.16 µM): 96%
- viability, T/C (second compound 0.1 µM, first compound 10 µM): 129%
- viability, T/C [11]: 96.9%
- viability, T/C [12]: 103%
- viability, T/C [29]: 104%
- viability, T/C [30]: 106%
- viability, T/C (second compound 0.316 µM, first compound 3.16 µM): 125%
- viability, T/C (second compound 0.316 µM, first compound 10 µM): 105%
- viability, T/C [15]: 85.9%
- viability, T/C [16]: 114%
- viability, T/C [31]: 93.4%
- viability, T/C [32]: 106%
- viability, T/C (second compound 1 µM, first compound 3.16 µM): 139%
- viability, T/C (second compound 1 µM, first compound 10 µM): 124%
- viability, T/C [19]: 92.2%
- viability, T/C [20]: 98.4%
- viability, T/C [33]: 108%
- viability, T/C [34]: 112%
- viability, T/C (second compound 3.16 µM, first compound 3.16 µM): 116%
- viability, T/C (second compound 3.16 µM, first compound 10 µM): 117%
- viability, T/C [23]: 97%
- viability, T/C [24]: 79.3%
- viability, T/C [35]: 92.5%
- viability, T/C [36]: 122%
- viability, T/C (second compound 10 µM, first compound 3.16 µM): 109%
- viability, T/C (second compound 10 µM, first compound 10 µM): 114%

From PubChem BioAssay AID1963853 (Molecular Pharmacology Branch, DTP, NCI, 2024)
